According to patent publication US11702632B2, “Ex vivo method of generating super regulatory T cells for the prevention of autoimmune disease” (University of Massachusetts, priority 2017, dated 2023):

Tested on: humanized mouse model of GvHD
Assay: Ex vivo-treated hPBMCs transferred into NSG mice, assessment of GvHD
Assay type: in vivo
Description: Animal protocols were approved by the Institutional Animal Care and use Committee of the University of Massachusetts Amherst. […] 10×10^6 treated hPBMCs in 150 μl of PBS were injected into mice via the tail vein.
Clinical score was generated by adding grades for five criteria.
IL-2 and IFNγ cytokine levels in plasma collected from NSG mice were determined by using human IFNγ and IL-2 Flex Sets (BD Biosciences). Data were acquired using a Fortessa 5 Laser Flow Cytometer (BD Biosciences) and analyzed using FCAP array software (Soft Flow Inc.).

`CC(=O)c1c(O)c(C)c(O)c(Cc2c(O)c3c(c(C(=O)/C=C/c4ccccc4)c2O)OC(C)(C)C=C3)c1O` [rottlerin, Rottlerin] was tested, and the “mice without overt signs of disease” value (hPBMCs pre-treated, no human cells detected on day +70) was “Two of three” and the “toxicity to hPBMCs” value (pre-treated hPBMCs) was “cytotoxic effects on hPBMCs”.
